Starred links: 1 amine or outer side, 2 acyl side, 3 side chain; linkers in the order of their positions; H or OH if unused. Non-standard residues stand in square brackets, D forms with d. Residues, ends and D or L forms follow the SMILES beside them. Groups on a side chain read outwards from the residue. *: point of attachment. C20 diacid = O=C(O)CCCCCCCCCCCCCCCCCCC(=O)*; C18 diacid = O=C(O)CCCCCCCCCCCCCCCCC(=O)*; d(βAsp) = O=C(O)[C@@H](CC(=O)[*:2])N[*:1]; γGlu = O=C(O)[C@H](CCC(=O)[*:2])N[*:1]; Desaminohistidyl = O=C(CCc1c[nH]cn1)*; AEEA = NCCOCCOCC(=O)O; Aib = CC(C)(N)C(=O)O; Inp = O=C(O)C1CCNCC1
Molecular target: human serum albumin (HSA) (Homo sapiens, UniProt P02768)
Test: Albumin binding affinity, competition scintillation proximity assay
Settings: for EC50 at 20 h: human, pH 7.4
Procedure: Streptavidin-SPA beads (GE Healthcare RPNQ0009) were incubated with biotinylated HSA for 5 hours. The beads were washed with buffer to remove unbound HSA. […] After 20 hours of gentle rocking at room temperature the plates were centrifuged and counted on a TopCounter.

Chain of human serum albumin (HSA) (P02768 25-609): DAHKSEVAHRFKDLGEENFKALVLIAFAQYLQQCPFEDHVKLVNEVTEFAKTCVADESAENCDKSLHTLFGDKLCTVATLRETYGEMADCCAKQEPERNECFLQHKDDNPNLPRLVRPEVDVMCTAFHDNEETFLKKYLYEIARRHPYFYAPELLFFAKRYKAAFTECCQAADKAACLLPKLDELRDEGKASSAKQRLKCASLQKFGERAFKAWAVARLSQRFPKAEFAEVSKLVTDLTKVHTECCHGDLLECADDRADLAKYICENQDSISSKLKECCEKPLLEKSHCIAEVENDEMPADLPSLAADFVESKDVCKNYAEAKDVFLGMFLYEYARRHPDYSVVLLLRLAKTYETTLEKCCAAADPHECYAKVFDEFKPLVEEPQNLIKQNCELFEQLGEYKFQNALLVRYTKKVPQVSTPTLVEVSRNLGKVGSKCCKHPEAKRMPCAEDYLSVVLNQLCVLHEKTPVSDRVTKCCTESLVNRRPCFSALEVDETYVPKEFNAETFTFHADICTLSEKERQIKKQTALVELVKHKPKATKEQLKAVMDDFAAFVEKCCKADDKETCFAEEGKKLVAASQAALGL

Row | Structure (SMILES) | EC50 [µM] | also measured
1 | CC[C@H](C)[C@H](NC(=O)[C@H](Cc1ccccc1)NC(=O)[C@H](CCC(=O)O)NC(=O)[C@H](CCCNC(=N)N)NC(=O)[C@H](C)NC(=O)[C@H](C)NC(=O)[C@H](CCC(N)=O)NC(=O)[C@H](CCC(=O)O)NC(=O)[C@H](CCC(=O)O)NC(=O)[C@H](CC(C)C)NC(=O)[C@H](Cc1ccc(O)cc1)NC(=O)[C@H](CO)NC(=O)[C@H](CO)NC(=O)[C@@H](NC(=O)[C@H](CC(=O)O)NC(=O)[C@H](CO)NC(=O)[C@@H](NC(=O)[C@H](Cc1ccccc1)NC(=O)[C@@H](NC(=O)CNC(=O)[C@H](CCC(=O)O)NC(=O)[C@H](C)NC(=O)Cc1c[nH]cn1)[C@@H](C)O)[C@@H](C)O)C(C)C)C(=O)N[C@@H](C)C(=O)N[C@@H](Cc1c[nH]c2ccccc12)C(=O)N[C@@H](CC(C)C)C(=O)N[C@H](C(=O)N[C@@H](CCCNC(=N)N)C(=O)NCC(=O)N[C@@H](CCCNC(=N)N)C(=O)N[C@@H](CCCCNC(=O)COCCOCCNC(=O)COCCOCCNC(=O)CC[C@H](NC(=O)[C@H]1CC[C@H](CNC(=O)CCCCCCCCCCCCCCCCCCC(=O)O)CC1)C(=O)O)C(=O)O)C(C)C [Example 54, N-alpha8-[2-(4-imidazolyl)acetyl] N-epsilon37-[2-(2-{2-[2-(2-{2-[(S)-4-Carboxy-4-({trans-4-[(19-carboxynonadecanoylamino)methyl]cyclohexanecarbonyl}amino)butyrylamino]ethoxy}ethoxy)acetylamino]ethoxy}ethoxy)acetyl][Glu22,Arg26,Arg34,Lys37]GLP-1-(8-37)] |  | EC50 at 20 h: 0.15 to 0.3 µM
2 | CC[C@H](C)[C@H](NC(=O)[C@H](Cc1ccccc1)NC(=O)[C@H](CCC(=O)O)NC(=O)[C@H](CCCNC(=N)N)NC(=O)[C@H](C)NC(=O)[C@H](C)NC(=O)[C@H](CCCCNC(=O)COCCOCCNC(=O)COCCOCCNC(=O)C[C@@H](NC(=O)C1CCN(C(=O)CCCCCCCCCCCCCCCCC(=O)O)CC1)C(=O)O)NC(=O)CNC(=O)[C@H](CCC(=O)O)NC(=O)[C@H](CC(C)C)NC(=O)[C@H](Cc1ccc(O)cc1)NC(=O)[C@H](CO)NC(=O)[C@H](CO)NC(=O)[C@@H](NC(=O)[C@H](CC(=O)O)NC(=O)[C@H](CO)NC(=O)[C@@H](NC(=O)[C@H](Cc1ccccc1)NC(=O)[C@@H](NC(=O)CNC(=O)[C@H](CCC(=O)O)NC(=O)C(C)(C)NC(=O)[C@@H](N)Cc1c[nH]cn1)[C@@H](C)O)[C@@H](C)O)C(C)C)C(=O)N[C@@H](C)C(=O)N[C@@H](Cc1c[nH]c2ccccc12)C(=O)N[C@@H](CC(C)C)C(=O)N[C@H](C(=O)N[C@@H](CCCNC(=N)N)C(=O)NCC(=O)N[C@@H](CCCNC(=N)N)C(=O)NCC(=O)O)C(C)C [Example 5] (H-H[Aib]EGTFTSDVSSYLEGK([AEEA-AEEA-d(βAsp)-Inp-C18 diacid])AAREFIAWLVRGRG-OH) | 0.3 to 0.8 | 
3 | CC[C@H](C)[C@H](NC(=O)[C@H](Cc1ccccc1)NC(=O)[C@H](CCC(=O)O)NC(=O)[C@H](CCCNC(=N)N)NC(=O)[C@H](C)NC(=O)[C@H](C)NC(=O)[C@H](CCC(N)=O)NC(=O)[C@H](CCC(=O)O)NC(=O)[C@H](CCC(=O)O)NC(=O)[C@H](CC(C)C)NC(=O)[C@H](Cc1ccc(O)cc1)NC(=O)[C@H](CO)NC(=O)[C@H](CO)NC(=O)[C@@H](NC(=O)[C@H](CC(=O)O)NC(=O)[C@H](CO)NC(=O)[C@@H](NC(=O)[C@H](Cc1ccccc1)NC(=O)[C@@H](NC(=O)CNC(=O)[C@H](CCC(=O)O)NC(=O)[C@H](C)NC(=O)CCc1c[nH]cn1)[C@@H](C)O)[C@@H](C)O)C(C)C)C(=O)N[C@@H](C)C(=O)N[C@@H](Cc1c[nH]c2ccccc12)C(=O)N[C@@H](CC(C)C)C(=O)N[C@H](C(=O)N[C@@H](CCCNC(=N)N)C(=O)NCC(=O)N[C@@H](CCCNC(=N)N)C(=O)NCC(=O)N[C@@H](CCCCNC(=O)COCCOCCNC(=O)CC[C@H](NC(=O)COCCOCCNC(=O)CC[C@H](NC(=O)C1CCN(C(=O)CCCCCCCCCCCCCCCCCCC(=O)O)CC1)C(=O)O)C(=O)O)C(=O)O)C(C)C [Example 58, [DesaminoHis7,Glu22,Arg26,34]-GLP-1 (7-37)-Lys-(2-(2-{2-[(S)-4-carboxy-4-(2-{2-[2-((S)-4-carboxy-4-{[1-(19-carboxynonadecanoyl)piperidine-4-carbonyl]amino}butyrylamino)ethoxy]ethoxy}acetylamino)butyrylamino]ethoxy}ethoxy)acetyl) peptide] (Desaminohistidyl-AEGTFTSDVSSYLEEQAAREFIAWLVRGRGK([AEEA-γGlu-AEEA-γGlu-Inp-C20 diacid])-OH) |  | EC50 at 20 h (biotinylated human serum albumin on streptavidin-SPA beads): 0.1 to 0.15 µM
4 | CC[C@H](C)[C@H](NC(=O)[C@H](Cc1ccccc1)NC(=O)[C@H](CCC(=O)O)NC(=O)[C@H](CCCCNC(=O)COCCOCCNC(=O)COCCOCCNC(=O)COCCOCCNC(=O)COCCOCCNC(=O)COCCOCCNC(=O)COCCOCCNC(=O)CC[C@H](NC(=O)CC[C@H](NC(=O)CCCCCCCCCCCNC(=O)CCCS(=O)(=O)NC(=O)CCCCCCCCCCCCCCCc1nnn[nH]1)C(=O)O)C(=O)O)NC(=O)[C@H](C)NC(=O)[C@H](C)NC(=O)[C@H](CCC(N)=O)NC(=O)CNC(=O)[C@H](CCC(=O)O)NC(=O)[C@H](CC(C)C)NC(=O)[C@H](Cc1ccc(O)cc1)NC(=O)[C@H](CO)NC(=O)[C@H](CO)NC(=O)[C@@H](NC(=O)[C@H](CC(=O)O)NC(=O)[C@H](CO)NC(=O)[C@@H](NC(=O)[C@H](Cc1ccccc1)NC(=O)[C@@H](NC(=O)CNC(=O)[C@H](CCC(=O)O)NC(=O)C(C)(C)NC(=O)[C@@H](N)Cc1c[nH]cn1)[C@@H](C)O)[C@@H](C)O)C(C)C)C(=O)N[C@@H](C)C(=O)N[C@@H](Cc1c[nH]c2ccccc12)C(=O)N[C@@H](CC(C)C)C(=O)N[C@H](C(=O)N[C@@H](CCCNC(=N)N)C(=O)NCC(=O)N[C@@H](CCCNC(=N)N)C(N)=O)C(C)C [Example 45, N-epsilon26-[2-(2-{2-[2-(2-{2-[2-(2-{2-[2-(2-{2-[2-(2-{2-[2-(2-{2-[(S)-4-Carboxy-4-((S)-4-carboxy-4-{12-[4-(16-(1H-tetrazol-5-yl)hexadecanoylsulfamoyl)butyrylamino]dodecanoylamino}butyrylamino)butyrylamino]ethoxy}ethoxy)acetylamino]ethoxy}ethoxy)acetylamino]ethoxy}ethoxy)acetylamino]ethoxy}ethoxy)acetylamino]ethoxy}ethoxy)acetylamino]ethoxy}ethoxy)acetyl][Aib8,Lys26,Arg34]GLP-1-(7-36)amide] | 0.1 to 0.15 | 
5 | CC[C@H](C)[C@H](NC(=O)[C@H](Cc1ccccc1)NC(=O)[C@H](CCC(=O)O)NC(=O)[C@H](CCCNC(=N)N)NC(=O)[C@H](C)NC(=O)[C@H](C)NC(=O)[C@H](CCC(N)=O)NC(=O)[C@H](CCC(=O)O)NC(=O)[C@H](CCC(=O)O)NC(=O)[C@H](CC(C)C)NC(=O)[C@H](Cc1ccc(O)cc1)NC(=O)[C@H](CO)NC(=O)[C@H](CO)NC(=O)[C@@H](NC(=O)[C@H](CC(=O)O)NC(=O)[C@H](CO)NC(=O)[C@@H](NC(=O)[C@H](Cc1ccccc1)NC(=O)[C@@H](NC(=O)CNC(=O)[C@H](CCC(=O)O)NC(=O)C(C)(C)NC(=O)[C@@H](N)Cc1c[nH]cn1)[C@@H](C)O)[C@@H](C)O)C(C)C)C(=O)N[C@@H](C)C(=O)N[C@@H](Cc1c[nH]c2ccccc12)C(=O)N[C@@H](CC(C)C)C(=O)N[C@H](C(=O)N[C@@H](CCCNC(=N)N)C(=O)NCC(=O)N[C@@H](CCCNC(=N)N)C(=O)N[C@@H](CCCCNC(=O)COCCOCCNC(=O)CC[C@H](NC(=O)CC[C@H](NC(=O)CCCCCCCCCCCNC(=O)CCCS(=O)(=O)NC(=O)CCCCCCCCCCCCCCCc1nnn[nH]1)C(=O)O)C(=O)O)C(N)=O)C(C)C [Example 48, N-epsilon37-[2-(2-{2-[(S)-4-Carboxy-4-((S)-4-carboxy-4-{12-[4-(16-(1H-tetrazol-5-yl)hexadecanoylsulfamoyl)butyrylamino]dodecanoylamino}butyrylamino)butyrylamino]ethoxy}ethoxy)acetyl][Aib8,Glu22,Arg26,Arg34,Lys37]GLP-1-(7-37)amide] | 0.8 to 2 | 
6 | CC[C@H](C)[C@H](NC(=O)[C@H](Cc1ccccc1)NC(=O)[C@H](CCC(=O)O)NC(=O)[C@H](CCCNC(=N)N)NC(=O)[C@H](C)NC(=O)[C@H](C)NC(=O)[C@H](CCC(N)=O)NC(=O)[C@H](CCC(=O)O)NC(=O)[C@H](CCC(=O)O)NC(=O)[C@H](CC(C)C)NC(=O)[C@H](Cc1ccc(O)cc1)NC(=O)[C@H](CO)NC(=O)[C@H](CO)NC(=O)[C@@H](NC(=O)[C@H](CC(=O)O)NC(=O)[C@H](CO)NC(=O)[C@@H](NC(=O)[C@H](Cc1ccccc1)NC(=O)[C@@H](NC(=O)CNC(=O)[C@H](CCC(=O)O)NC(=O)[C@H](C)NC(=O)CCc1c[nH]cn1)[C@@H](C)O)[C@@H](C)O)C(C)C)C(=O)N[C@@H](C)C(=O)N[C@@H](Cc1c[nH]c2ccccc12)C(=O)N[C@@H](CC(C)C)C(=O)N[C@H](C(=O)N[C@@H](CCCNC(=N)N)C(=O)NCC(=O)N[C@@H](CCCNC(=N)N)C(=O)NCC(=O)N[C@@H](CCCCNC(=O)COCCOCCNC(=O)COCCOCCNC(=O)CC[C@H](NC(=O)C1CCN(C(=O)CCCCCCCCCCCCCCCCCCC(=O)O)CC1)C(=O)O)C(N)=O)C(C)C [Example 14, [DesaminoHis7,Glu22,Arg26,Arg34]GLP-1-(7-37)Lys[2-(2-[2-(2-[2-(2-((S)-4-[1-[19-Carboxynonadecanoyl]piperidine-4-carbonylamino]-4-carboxybutyrylamino)ethoxy)ethoxy]acetylamino)ethoxy]ethoxy)acetyl]amide] (Desaminohistidyl-AEGTFTSDVSSYLEEQAAREFIAWLVRGRGK([AEEA-AEEA-γGlu-Inp-C20 diacid])-NH2) | 0.3 to 0.8 | 
